Data as given in patent US20050208511A1, “DMBT1 as a clinical marker and uses thereof” (priority 2003, published 2005).

Test system: endometrium
Assay: average endometrial thickness in treated monkeys
Type: in vivo, cynomolgus monkeys (Macaca fascicularis)
Conditions: Intact/leuprolide (leuprolide for 40 days)

CCNC(=O)[C@@H]1CCCN1C(=O)[C@H](CCCNC(=N)N)NC(=O)[C@H](CC(C)C)NC(=O)[C@@H](CC(C)C)NC(=O)[C@H](Cc1ccc(O)cc1)NC(=O)[C@H](CO)NC(=O)[C@H](Cc1c[nH]c2ccccc12)NC(=O)[C@H](Cc1c[nH]cn1)NC(=O)[C@@H]1CCC(=O)N1 [leuprolide]
Endometrial Thickness (mm): 1.25 mm
